Here are results for three molecules from patent US20250228950A1 (priority 2017, published 2025).

The subject of data set [1] is MDA-MB-231 breast cancer cells. Kind of data set: MDA-MB-231 cell growth inhibition / cytotoxicity assay, incl. pH 6.2 vs pH 7.4. Particulars: for IC50: Homo sapiens; for cell growth inhibitory activity / pH-dependent cytotoxicity: MDA-MB-231 cells; for cell growth inhibitory activity: FIG. 3 legend; for pH-dependent cytotoxicity: pH 6.2 over pH 7.4.
In data set [2] the test system is EMT-6 cells. The experiment in a line: EMT-6 cytotoxicity at pH 6.2 vs pH 7.4. Format: cell-based.

On to `NP(=O)(OCCSSCCCc1c(F)c(F)c(O)c(F)c1F)N(CCCl)CCCl` (centres unmarked) [YU252213], for which the IC50 (usually the point on the concentration scale where inhibition reaches its midpoint) in data set [1] (MDA-MB-231, pH 6.2) is 41.4 µM; in data set [1] (MDA-MB-231, pH 7.4), over 100 µM. For the same molecule, the “cell growth inhibitory activity” value in data set [1] is listed as “shows cell growth inhibitory activity”. Further, in data set [1], the pH-dependent cytotoxicity result is listed as “preferential cytotoxicity in acidic conditions”.

Consider `O=C(Nc1ccc(N(CCCl)CCCl)cc1)OCCSSCCCc1c(F)c(F)c(O)c(F)c1F` [YU252353], for which the pH-dependent cytotoxicity entry in data set [1] was “preferential cytotoxicity in acidic conditions”. In data set [2] (Mus musculus, EMT6, tumor pH 6.2), this molecule yielded an IC50 of 28.7 µM. Moreover, the “toxicity in this assay” value in data set [2] (normal physiological pH 7.4) was “no detectable toxicity”.

On to `O=P1(N(CCCl)CCCl)NCCCO1` (centres unmarked) [Cyclophosphamide, reference compound], for which the “cell growth inhibitory activity” value in data set [1] is “remains inactive”.
